Experiment [1] addresses T1, wild-type ALK2 (aa172-499) (Homo sapiens (Human), UniProt Q04771). The experiment can be described thus: ADPGlo biochemical autophosphorylation assay, ALK2. Particulars: 15 μm ATP, 60 min at 32° C. On the technique in general: ADP-Glo turns the ADP formed in a reaction into a luminescent signal.
Experiment [2] concerns the target ALK3 (aa198-525) (Homo sapiens (Human), UniProt P36894). The experiment can be described thus: ADPGlo biochemical autophosphorylation assay, ALK3. Particulars: 15 μm ATP, 60 min at 32° C.
Experiment [3] deals with T1, wild-type ALK2 (aa172-499). The experiment can be described thus: Caliper biochemical peptide phosphorylation assay, ALK2. The following applies: 15 μm ATP, 60 min at 30° C.; read-out: ALK2 EPK (IC50).
Experiment [4] addresses ALK1 (aa166-493) (Homo sapiens (Human), UniProt P37023). The experiment can be described thus: Caliper biochemical peptide phosphorylation assay, ALK1. The following applies: 15 μm ATP, 60 min at 30° C.; read-out: ALK1 EPK (IC50).
Experiment [5] concerns the target ALK5 (aa162-503) (Homo sapiens (Human), UniProt P36897). The experiment can be described thus: Caliper biochemical peptide phosphorylation assay, ALK5. The following applies: 15 μm ATP, 60 min at 30° C.; read-out: ALK5 EPK (IC50).
Experiment [6] concerns the target ALK6 (aa168-495) (Homo sapiens (Human), UniProt O00238). Briefly: Caliper biochemical peptide phosphorylation assay, ALK6. Particulars: 15 μm ATP, 60 min at 30° C.; read-out: ALK6 EPK (IC50).
The test system of experiment [7] is BMP response element (BRE) luciferase reporter in HuH7 cells, BMP6 stimulated. The experiment can be described thus: BMP signaling reporter gene assay. Format: cell-based. Particulars: Homo sapiens, Huh-7; HuH7 BRE-luciferase, BMP6 100 ng/ml, 5 hours; read-out: MSD BMP RGA IC50. A general note: Reporter assays use an easily measured gene product as a stand-in for the process of interest.

Experimental findings from patent publication US10710980B2, “Aminopyridine derivatives and their use as selective ALK-2 inhibitors” (priority 2016, dated 2020) are described below.

Sequence of ALK5 (aa162-503) (P36897 162-503): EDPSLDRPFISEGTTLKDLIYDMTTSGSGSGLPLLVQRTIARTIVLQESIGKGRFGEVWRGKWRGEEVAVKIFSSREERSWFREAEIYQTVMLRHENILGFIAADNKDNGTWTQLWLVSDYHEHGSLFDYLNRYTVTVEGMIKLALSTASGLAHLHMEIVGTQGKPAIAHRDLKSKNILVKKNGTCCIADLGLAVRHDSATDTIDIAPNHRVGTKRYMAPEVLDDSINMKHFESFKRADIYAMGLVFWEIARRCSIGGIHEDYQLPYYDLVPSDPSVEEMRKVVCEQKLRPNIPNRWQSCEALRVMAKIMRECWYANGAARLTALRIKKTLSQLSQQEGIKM
Sequence of ALK1 (aa166-493) (P37023 166-493): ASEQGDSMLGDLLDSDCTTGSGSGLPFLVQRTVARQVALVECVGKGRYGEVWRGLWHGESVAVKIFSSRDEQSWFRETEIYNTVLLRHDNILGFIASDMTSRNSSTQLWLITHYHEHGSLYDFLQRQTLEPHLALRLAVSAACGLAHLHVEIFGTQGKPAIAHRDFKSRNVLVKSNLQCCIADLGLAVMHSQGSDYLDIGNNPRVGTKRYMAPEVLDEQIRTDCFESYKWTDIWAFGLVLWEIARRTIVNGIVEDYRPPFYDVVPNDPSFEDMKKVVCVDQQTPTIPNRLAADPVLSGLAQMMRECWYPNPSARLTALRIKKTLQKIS
Sequence of ALK6 (aa168-495) (O00238 168-495): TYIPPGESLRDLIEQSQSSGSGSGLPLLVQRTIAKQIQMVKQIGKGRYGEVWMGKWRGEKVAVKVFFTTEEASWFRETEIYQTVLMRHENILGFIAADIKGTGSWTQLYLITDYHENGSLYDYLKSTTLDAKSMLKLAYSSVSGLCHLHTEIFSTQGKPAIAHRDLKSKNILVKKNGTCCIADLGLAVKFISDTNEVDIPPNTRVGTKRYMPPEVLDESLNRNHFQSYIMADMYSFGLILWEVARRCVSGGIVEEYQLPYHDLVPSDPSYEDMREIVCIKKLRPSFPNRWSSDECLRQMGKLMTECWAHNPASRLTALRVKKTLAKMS
Sequence of ALK3 (aa198-525) (P36894 198-525): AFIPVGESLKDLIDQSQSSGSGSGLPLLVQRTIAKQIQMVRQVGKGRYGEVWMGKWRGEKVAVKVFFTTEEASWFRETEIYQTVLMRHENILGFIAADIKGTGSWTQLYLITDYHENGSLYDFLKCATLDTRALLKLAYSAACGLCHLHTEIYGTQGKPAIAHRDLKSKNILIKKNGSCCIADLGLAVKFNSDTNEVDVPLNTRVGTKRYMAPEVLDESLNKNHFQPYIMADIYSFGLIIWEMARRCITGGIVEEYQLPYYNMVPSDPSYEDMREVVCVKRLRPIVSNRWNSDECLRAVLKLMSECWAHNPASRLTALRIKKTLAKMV
T1 sequence (Q04771 172-499): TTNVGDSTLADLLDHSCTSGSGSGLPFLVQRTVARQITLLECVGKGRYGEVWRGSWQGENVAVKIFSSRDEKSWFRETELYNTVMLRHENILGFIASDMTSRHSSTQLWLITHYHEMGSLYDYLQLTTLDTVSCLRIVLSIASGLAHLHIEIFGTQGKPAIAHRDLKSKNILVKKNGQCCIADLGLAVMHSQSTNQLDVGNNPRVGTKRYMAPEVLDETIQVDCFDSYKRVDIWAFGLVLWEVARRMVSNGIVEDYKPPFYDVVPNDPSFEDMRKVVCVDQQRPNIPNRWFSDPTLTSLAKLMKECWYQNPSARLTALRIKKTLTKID

For orientation: IC50 means the midpoint of a concentration-inhibition curve. Turning to `CC(F)(F)CN1C[C@@H]2C[C@]2(c2ccc(-c3cnc(N)c(C(=O)N[C@H]4CC[C@H](O)CC4)c3)cc2)C1` [Example 76, 2-amino-5-(4-((1S,5R)-3-(2,2-difluoropropyl)-3-azabicyclo[3.1.0]hexan-1-yl)phenyl)-N-((1r,4S)-4-hydroxycyclohexyl)nicotinamide], the IC50 in experiment [1] is 34 nM; in experiment [2], 3200 nM; in experiment [3] it was 79 nM; in experiment [4], 370 nM; in experiment [5], 9400 nM; in experiment [6] it was 8400 nM. For the same molecule, in experiment [7], the IC50 was 2300 nM.

On to `Nc1ncc(-c2cccc(C(=O)N3CCN(CCO)CC3)c2)cc1C(=O)NC1CCCCC1` [Example 88, 2-amino-N-cyclohexyl-5-(3-(4-(2-hydroxyethyl)piperazine-1-carbonyl)phenyl)nicotinamide], for which the IC50 was 990 nM in experiment [1]; 22800 nM in experiment [2]; 810 nM in experiment [3]; 20200 nM in experiment [4]; 20200 nM in experiment [5]; 20200 nM in experiment [6]. Further, the IC50 in experiment [7] came out at 9300 nM.

For `Nc1ncc(-c2ccc([C@]34C[C@H]3CN(CC(F)(F)F)C4)cc2)cc1C(=O)N[C@H]1CC[C@H](O)CC1` [Example 67, 2-amino-N-((1r,4S)-4-hydroxycyclohexyl)-5-(4-((1S,5R)-3-(2,2,2-trifluoroethyl)-3-azabicyclo[3.1.0]hexan-1-yl)phenyl)nicotinamide], the IC50 was determined as 22 nM in experiment [1]; 1900 nM in experiment [2]; 50 nM in experiment [3]; 180 nM in experiment [4]; 10000 nM in experiment [5]; 8700 nM in experiment [6]. In experiment [7], the IC50 worked out at 1160 nM.

Consider `Nc1ncc(-c2ccc([C@@]34C[C@@H]3CN(C3COC3)C4)cc2)cc1C(=O)NC12CCC(O)(CC1)CC2` [Example 64, 2-amino-N-(4-hydroxybicyclo[2.2.2]octan-1-yl)-5-(4-((1R,5S)-3-(oxetan-3-yl)-3-azabicyclo[3.1.0]hexan-1-yl)phenyl)nicotinamide], for which the IC50 in experiment [1] was found to be 110 nM; in experiment [2], 2200 nM; in experiment [3], 63 nM; in experiment [4] it was 1000 nM; in experiment [5], 7500 nM; in experiment [6], 3800 nM. Besides, the IC50 in experiment [7] came out at 380 nM.

Take `Nc1ncc(-c2ccc([C@]34C[C@H]3CN(C3COC3)C4)cc2)cc1C(=O)N[C@H]1CC[C@H](O)CC1` [Example 26, 2-amino-N-((1r,4S)-4-hydroxycyclohexyl)-5-(4-((1S,5R)-3-(oxetan-3-yl)-3-azabicyclo[3.1.0]hexan-1-yl)phenyl)nicotinamide]: the IC50 in experiment [1] was 18 nM; in experiment [2] it was 1700 nM; in experiment [3], 18 nM; in experiment [4] it was 230 nM; in experiment [5], 4300 nM; in experiment [6], 2500 nM. The IC50 in experiment [7] is 110 nM.

Take `C[C@H](c1ccc(-c2cnc(N)c(C(=O)N[C@H]3CC[C@H](O)CC3)c2)cc1)N1CC2(COC2)C1` [Example 3, 5-(4-((R)-1-(2-oxa-6-azaspiro[3.3]heptan-6-yl)ethyl)phenyl)-2-amino-N-((1r,4R)-4-hydroxycyclohexyl)nicotinamide]: the IC50 in experiment [1] was 12 nM; in experiment [2], 1050 nM; in experiment [3] it was 11 nM; in experiment [4], 136 nM; in experiment [5], 2130 nM; in experiment [6] it was 1730 nM. Also, the IC50 in experiment [7] is 62 nM.

With `CC(C)N1C[C@H]2C[C@@]2(c2ccc(-c3cnc(N)c(C(=O)N[C@H]4CC[C@](C)(O)CC4)c3)cc2)C1` [Example 24, 2-amino-N-((1r,4R)-4-hydroxy-4-methylcyclohexyl)-5-(4-((1R,5S)-3-isopropyl-3-azabicyclo[3.1.0]hexan-1-yl)phenyl)nicotinamide], the IC50 in experiment [1] stood at 11 nM; in experiment [2], 6480 nM; in experiment [3], 16 nM; in experiment [4], 543 nM; in experiment [5], 6800 nM; in experiment [6], 7300 nM. Also, the IC50 in experiment [7] came to 81 nM.

For `CC(C)N1C[C@@H]2C[C@]2(c2ccc(-c3cnc(N)c(C(=O)N[C@H]4CC[C@](C)(O)CC4)c3)cc2)C1` [Example 32, 2-amino-N-((1r,4S)-4-hydroxy-4-methylcyclohexyl)-5-(4-((1S,5R)-3-isopropyl-3-azabicyclo[3.1.0]hexan-1-yl)phenyl)nicotinamide], the IC50 amounted to 22 nM in experiment [1]; 12700 nM in experiment [2]; 20 nM in experiment [3]; 743 nM in experiment [4]; 3200 nM in experiment [5]; 3300 nM in experiment [6]. The IC50 in experiment [7] came out at 93 nM.

As to `Nc1ncc(-c2ccc([C@@]34C[C@@H]3CN(CCN3CCOCC3)C4)cc2)cc1C(=O)N[C@H]1CC[C@H](O)CC1` [Example 10, 2-amino-N-((1r,4R)-4-hydroxycyclohexyl)-5-(4-((1R,5S)-3-(2-morpholinoethyl)-3-azabicyclo[3.1.0]hexan-1-yl)phenyl)nicotinamide], the IC50 came to 11 nM in experiment [1]; 1400 nM in experiment [2]; 11 nM in experiment [3]; 89 nM in experiment [4]; 2600 nM in experiment [5]; 2500 nM in experiment [6]. Further, the IC50 in experiment [7] is 61 nM.

Consider `COCCN1C[C@@H]2C[C@]2(c2ccc(-c3cnc(N)c(C(=O)NC45CCC(O)(CC4)CC5)c3)cc2)C1` [Example 7, 2-amino-N-(4-hydroxybicyclo[2.2.2]octan-1-yl)-5-(4-((1S,5R)-3-(2-methoxyethyl)-3-azabicyclo[3.1.0]hexan-1-yl)phenyl)nicotinamide], for which the IC50 in experiment [1] amounted to 12 nM; in experiment [2], 875 nM; in experiment [3], 12 nM; in experiment [4] it was 195 nM; in experiment [5] it was 5450 nM; in experiment [6], 2400 nM. In addition, in experiment [7], the IC50 was 51 nM.

For `C[C@H](c1ccc(-c2cnc(N)c(C(=O)N[C@H]3CC[C@](C)(O)CC3)c2)cc1)N1CC2(COC2)C1` [Example 59, 5-(4-((R)-1-(2-oxa-6-azaspiro[3.3]heptan-6-yl)ethyl)phenyl)-2-amino-N-((1r,4R)-4-hydroxy-4-methylcyclohexyl)nicotinamide], the IC50 amounted to 24 nM in experiment [1]; 2700 nM in experiment [2]; 33 nM in experiment [3]; 770 nM in experiment [4]; 9100 nM in experiment [5]; 7700 nM in experiment [6]. In addition, the IC50 in experiment [7] was determined as 405 nM.

`COCCN1C[C@@H]2C[C@]2(c2ccc(-c3cnc(N)c(C(=O)N[C@H]4CC[C@H](O)CC4)c3)cc2)C1` [Example 20, 2-amino-N-((1r,4S)-4-hydroxycyclohexyl)-5-(4-((1S,5R)-3-(2-methoxyethyl)-3-azabicyclo[3.1.0]hexan-1-yl)phenyl)nicotinamide]: the IC50 is 7 nM in experiment [1]; 1350 nM in experiment [2]; 17 nM in experiment [3]; 130 nM in experiment [4]; 3800 nM in experiment [5]; 3950 nM in experiment [6]. Also, the IC50 in experiment [7] turned out to be 40 nM.

Regarding `C[C@]1(O)CC[C@H](NC(=O)c2cc(-c3ccc([C@]45C[C@H]4CN(C4CCC(F)(F)CC4)C5)cc3)cnc2N)CC1` [Example 58, 2-amino-5-(4-((1S,5R)-3-(4,4-difluorocyclohexyl)-3-azabicyclo[3.1.0]hexan-1-yl)phenyl)-N-((1r,4S)-4-hydroxy-4-methylcyclohexyl)nicotinamide], the IC50 in experiment [1] was 25 nM; in experiment [2] it was 3720 nM; in experiment [3] it was 32 nM; in experiment [4], 663 nM; in experiment [5], 7550 nM; in experiment [6] it was 8400 nM. In experiment [7], the IC50 amounted to 143 nM.

Consider `Nc1ncc(-c2ccc(N3CCNCC3)cc2F)cc1C(=O)N[C@H]1CC[C@H](O)CC1` [Example 29, 2-amino-5-(2-fluoro-4-(piperazin-1-yl)phenyl)-N-((1r,4r)-4-hydroxycyclohexyl)nicotinamide], for which the IC50 was determined as 22 nM in experiment [1]; 2500 nM in experiment [2]; 20 nM in experiment [3]; 280 nM in experiment [4]; 4000 nM in experiment [5]; 4000 nM in experiment [6]. The IC50 in experiment [7] was determined as 685 nM.

With `CC(C)N1C[C@H]2C[C@@]2(c2ccc(-c3cnc(N)c(C(=O)N[C@H]4CC[C@H](O)CC4)c3)cc2)C1` [Example 2, 2-amino-N-((1r,4R)-4-hydroxycyclohexyl)-5-(4-((1R,5S)-3-isopropyl-3-azabicyclo[3.1.0]hexan-1-yl)phenyl)nicotinamide], the IC50 in experiment [1] was 12 nM; in experiment [2], 1770 nM; in experiment [3], 11 nM; in experiment [4], 93 nM; in experiment [5], 2170 nM; in experiment [6] it was 2500 nM. Also, in experiment [7], the IC50 is 21 nM.
